Reference: patent US7476677B2, “Substituted thieno- and thiazolo- [2,3-d]pyrimidines and [2,3-c]pyridines as inhibitors of Tie2” (AstraZeneca AB, priority 2004, dated 2009)

Key:
[1] = biological target: T1, Tie2 receptor (Homo sapiens, UniProt Q02763); assay: Cellular Tie2 autophosphorylation assay (Test (b)); type: cell-based; details: Ang1 ligand stimulated Tie2 autophosphorylation, e.g. EA.hy926/B3 cells, western blot
T1 construct: one can use natural cell lines or primary cells which are known to express the receptor of choice; endogenous in cells; host or cells: EA.hy926/B3 cells (HUVEC named as alternative)
T1 sequence (Q02763 23-1124): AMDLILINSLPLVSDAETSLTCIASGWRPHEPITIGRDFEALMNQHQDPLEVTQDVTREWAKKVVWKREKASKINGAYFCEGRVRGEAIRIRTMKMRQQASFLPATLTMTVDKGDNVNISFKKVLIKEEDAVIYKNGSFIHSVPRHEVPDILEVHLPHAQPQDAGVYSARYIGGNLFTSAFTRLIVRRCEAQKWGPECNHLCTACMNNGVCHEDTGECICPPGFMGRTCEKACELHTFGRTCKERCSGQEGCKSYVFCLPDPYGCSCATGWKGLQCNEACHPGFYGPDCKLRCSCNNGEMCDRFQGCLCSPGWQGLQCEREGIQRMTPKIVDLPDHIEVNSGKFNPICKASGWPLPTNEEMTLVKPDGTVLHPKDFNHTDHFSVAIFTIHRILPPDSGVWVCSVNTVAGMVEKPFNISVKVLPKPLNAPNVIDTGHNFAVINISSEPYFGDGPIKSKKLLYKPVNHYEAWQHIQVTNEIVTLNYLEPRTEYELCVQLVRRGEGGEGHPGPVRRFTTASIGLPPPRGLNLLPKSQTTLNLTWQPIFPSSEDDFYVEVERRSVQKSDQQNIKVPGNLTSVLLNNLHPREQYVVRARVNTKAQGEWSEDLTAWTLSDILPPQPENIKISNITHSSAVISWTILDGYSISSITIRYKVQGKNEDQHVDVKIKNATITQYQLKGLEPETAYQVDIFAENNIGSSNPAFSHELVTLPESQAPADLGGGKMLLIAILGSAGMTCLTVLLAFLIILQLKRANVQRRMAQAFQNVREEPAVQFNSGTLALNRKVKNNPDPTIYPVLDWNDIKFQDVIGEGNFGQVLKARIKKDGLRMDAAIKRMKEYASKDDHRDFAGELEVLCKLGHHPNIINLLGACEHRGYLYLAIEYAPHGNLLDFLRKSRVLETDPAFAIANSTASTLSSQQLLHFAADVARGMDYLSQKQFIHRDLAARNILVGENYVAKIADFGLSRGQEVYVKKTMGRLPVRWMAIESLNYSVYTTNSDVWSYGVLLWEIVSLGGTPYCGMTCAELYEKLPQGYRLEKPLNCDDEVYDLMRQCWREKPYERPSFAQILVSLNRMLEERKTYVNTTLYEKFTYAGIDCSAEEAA
From the text: b. Cellular Tie2 Autophosphorylation Assay
This assay is based on measuring the ability of compounds to inhibit autophosphorylation of the Tie2 receptor which normally leads to the production of “activated” receptor that in turn initiates the particular signal transduction pathways associated with the receptor function.
Autophosphorylation can be achieved by a number of means. It is known that expression of recombinant kinase domains in baculoviral systems can lead to the production of phosphorylated and activated receptor. […] In these cases the natural, external cell surface domain of the receptor has been replaced with that of a domain which is known to be readily dimerised via the addition of the appropriate ligand (e.g. TrkA-Tie2/NGF ligand (Marron, M. B., et al., 2000 Journal of Biological Chemistry: 275:39741-39746) or C-fms-Tie-1/CSF-1 ligand (Kontos, C. D., et al., 2002 Molecular and Cellular Biology: 22, 1704-1713). Thus when the chimaeric receptor expressed in a host cell line and the respective ligand is added, this induces autophosphorylation of the chimeric receptor's kinase domain. This approach has the advantage of often allowing a known (and often easily obtained) ligand to be used instead of having to identify and isolate the natural ligand for each receptor of interest. […]

[2] = biological target: T2, Tie2 receptor tyrosine kinase (Homo sapiens, UniProt Q02763); assay: In vitro receptor tyrosine kinase inhibition assay (Test (a), ELISA based); type: biochemical; details: recombinant human kinase domain lysate, synthetic peptide substrate, ATP 5 micromolar or Km
T2 construct: consist of only the intracellular portion C-terminal portion of the respective receptor, within which is found the kinase domain; made in house; host or cells: baculovirus/Sf21 insect cells, used as cleared lysate
T2 sequence (Q02763 770-1124 limits assumed): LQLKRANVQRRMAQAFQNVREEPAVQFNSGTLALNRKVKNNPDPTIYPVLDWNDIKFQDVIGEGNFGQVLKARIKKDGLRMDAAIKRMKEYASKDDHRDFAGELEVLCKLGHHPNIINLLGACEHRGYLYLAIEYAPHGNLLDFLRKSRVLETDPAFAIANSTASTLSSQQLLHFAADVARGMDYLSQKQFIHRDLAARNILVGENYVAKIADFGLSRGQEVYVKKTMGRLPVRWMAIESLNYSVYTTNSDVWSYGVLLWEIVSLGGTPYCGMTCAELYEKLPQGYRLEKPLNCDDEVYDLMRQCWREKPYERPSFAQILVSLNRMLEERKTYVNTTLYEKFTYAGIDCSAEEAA
Description: a. In Vitro Receptor Tyrosine Kinase Inhibition Assay
To test for inhibition of Tie2 receptor tyrosine kinase, compounds are evaluated in a non-cell based protein kinase assay by their ability to inhibit the protein kinase enzyme phosphorylation of a tyrosine containing polypeptide substrate in an ELISA based microtitre plate assay. In this particular case, the assay was to determine the IC50, for three different recombinant human tyrosine kinases Tie2, KDR and Flt.
To facilitate production of the tyrosine kinases, recombinant receptor genes were produced using standard molecular biology cloning and mutagenesis techniques. […]
Constitutive kinase activity of these recombinant proteins was determined by their ability to phosphorylate a synthetic peptide (made up of a random co-polymer of Glutamic Acid, Alanine and Tyrosine in the ratio of 6:3:1). […]
The immobilised phospho-peptide product of the reaction was detected by immunological methods. […] Following extensive washing with PBS-T, HRP activity in each well of the plate was measured colorimetrically using 22′-Azino-di-[3-ethylbenzthiazoline sulfonate (6)] diammonium salt crystals ABTS (Sigma P4922—prepared as per manufactures instructions) as a substrate incubated for 30-45 minutes to allow colour development, before 100 ul of 1M H2SO4 was added to stop the reaction. […]

IC50 [1]: 0.4 µM
IC50 [2]: 16 µM
Structure (SMILES): Cn1cnc(-c2cccc(NC(=O)Nc3cccc(F)c3)c2)c1-c1cc2c(N)ncnc2s1 [Example 1, N-{3-[5-(4-Aminothieno[2,3-d]pyrimidin-6-yl)-1-methyl-1H-imidazol-4-yl]phenyl}-N′-(3-fluorophenol)urea]
